Counter-ions that a name gives are not always drawn.

The assay has as its target T1, rat mGlu 1a receptor (Rattus norvegicus, UniProt P23385).
T1 construct: expressed in transfected cells; host or cells: EBNA cells (transient transfection)
As to the kind of experiment: [Ca2+]i measurements (FLIPR, Fluo-3 AM) on mGlu 1a transfected EBNA cells; agonist or antagonist (against 10 μM glutamate). Type of assay: cell-based. The following applies: for agonist/antagonist: activity-data table; for EC50: agonist, activation of mGlu 1a in EBNA cells, read-out: IC50 (compounds marked agonist); for Remarks (agonist / antagonist): table of substituents of the Examples, column Remarks; for IC50: antagonist, tested against 10 μM glutamate as agonist, read-out: IC50 (compounds marked antagonist). As to the method: cDNA encoding rat mGlu 1a receptor obtained from Prof. Nakanishi (Kyoto, Japan) was transiently tranfected into EBNA cells using a procedure described by Schlaeger et. al, New Dev. New Appl. Anim Cell Techn., Proc. ESACT Meet., 15th (1998), 105-112 and 117-120. [Ca^2+ ]i measurements were performed on mGlu 1a transfected EBNA cells after incubation of the cells with Fluo-3 AM (0.5 μM final concentration) for 1hour at 37° C. followed by 4 washes with assay buffer (DMEM supplemented with Hank's salt and 20 mM HEPES. [Ca^2+ ]i measurements were done using a fluorometric imaging plate reader (FLIPR, Molecular Devices Corporation, La Jolla, Calif. USA). When compounds were evaluated as antagonists they were tested against 10 μM glutamate as agonist.
The inhibition (antagonists) or activation (agonists) curves were fitted with a four parameter logistic equation giving EC50, IC50, and Hill coefficient using the iterative non linear curve fitting software Origin (Microcal Software Inc., Northampton, Mass., USA).

T1 sequence (P23385 19-1199): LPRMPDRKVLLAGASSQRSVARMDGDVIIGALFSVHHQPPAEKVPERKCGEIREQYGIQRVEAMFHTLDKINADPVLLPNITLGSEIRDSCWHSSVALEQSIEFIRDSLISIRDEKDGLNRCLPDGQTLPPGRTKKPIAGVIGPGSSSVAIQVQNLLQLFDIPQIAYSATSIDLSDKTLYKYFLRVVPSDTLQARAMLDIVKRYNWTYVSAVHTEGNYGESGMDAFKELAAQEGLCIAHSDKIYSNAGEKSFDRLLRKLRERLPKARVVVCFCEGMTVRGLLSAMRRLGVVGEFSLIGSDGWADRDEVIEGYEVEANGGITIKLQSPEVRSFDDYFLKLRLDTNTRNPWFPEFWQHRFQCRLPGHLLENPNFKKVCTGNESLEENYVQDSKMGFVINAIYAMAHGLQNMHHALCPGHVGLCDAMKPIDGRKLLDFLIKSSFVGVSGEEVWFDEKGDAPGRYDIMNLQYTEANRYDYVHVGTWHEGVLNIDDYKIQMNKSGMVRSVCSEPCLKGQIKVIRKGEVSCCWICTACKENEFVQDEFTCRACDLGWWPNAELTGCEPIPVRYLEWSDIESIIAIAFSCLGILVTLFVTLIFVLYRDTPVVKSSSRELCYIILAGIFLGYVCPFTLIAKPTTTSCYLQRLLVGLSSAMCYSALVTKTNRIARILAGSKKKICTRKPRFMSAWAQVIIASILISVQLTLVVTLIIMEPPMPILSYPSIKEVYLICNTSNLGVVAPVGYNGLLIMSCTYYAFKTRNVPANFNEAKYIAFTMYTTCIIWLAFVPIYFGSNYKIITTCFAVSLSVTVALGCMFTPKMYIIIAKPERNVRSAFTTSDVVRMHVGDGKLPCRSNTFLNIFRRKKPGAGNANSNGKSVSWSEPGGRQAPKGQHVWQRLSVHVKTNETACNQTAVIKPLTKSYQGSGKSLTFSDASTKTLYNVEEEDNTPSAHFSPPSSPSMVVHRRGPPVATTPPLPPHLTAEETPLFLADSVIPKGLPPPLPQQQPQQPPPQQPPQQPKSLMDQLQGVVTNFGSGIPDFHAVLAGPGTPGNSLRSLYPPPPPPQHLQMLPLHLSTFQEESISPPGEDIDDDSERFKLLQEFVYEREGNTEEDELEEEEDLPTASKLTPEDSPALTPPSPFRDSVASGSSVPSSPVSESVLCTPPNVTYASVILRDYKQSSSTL

As to `Cc1ccc(S(=O)(=O)N2CCCC2c2ccccc2)cc1` (racemic) [Example 4, (RS)-2-Phenyl-1-(toluene-4-sulfonyl)-pyrrolidine], the agonist/antagonist result was “agonist”, the EC50 stood at 0.23 µM and the “Remarks (agonist / antagonist)” value is “Agonist”. As for `CC1CCN(S(=O)(=O)c2ccc(Cl)cc2)C1c1ccc(F)cc1` (racemic) [Example 89, Mixture of (2RS,3RS)- and (2RS,3 SR)-1-(4-chloro-benzenesulfonyl)-2-(4-fluoro-phenyl)-3-methyl-pyrrolidine], the “agonistic / antagonistic activity to the mGlu receptor” value (shortened to “agonistic / antagonistic activity”) was “agonistic activty” and the “Remarks (agonist / antagonist)” value is reported as “agonist”. On to `Cc1cccc(C2CCCN2S(=O)(=O)c2ccc(F)cc2)c1` (racemic) [Example 30, (RS)-1-(4-Fluoro-benzenesulfonyl)-2-m-tolyl-pyrrolidine], for which the “Remarks (agonist / antagonist)” value was “Antagonist”. Consider `O=S(=O)(c1ccc(F)cc1)N1CCCC1c1ccc(F)c(Cl)c1` (racemic) [Example 44, (RS)-2-(3-Chloro-4-fluoro-phenyl)-1-(4-fluoro-benzenesulfonyl)-pyrrolidine], for which the “Remarks (agonist / antagonist)” value is “Antagonist”. `COc1ccc(C2CCCN2S(=O)(=O)c2ccc(C)cc2)cc1` (racemic) [Example 25, (RS)-2-(4-Methoxy-phenyl)-1-(toluene-4-sulfonyl)-pyrrolidine]: the “agonistic / antagonistic activity” value is listed as “agonistic activty” and the “Remarks (agonist / antagonist)” value is “Agonist”. Consider `Cc1ccc(S(=O)(=O)N2CCCC2c2cccs2)cc1` (racemic) [Example 37, (RS)-2-Thien-2-yl-1-(toluene-4-sulfonyl)-pyrrolidine], for which the “Remarks (agonist / antagonist)” value is given as “Antagonist”. With `O=C(O)/C=C/C(=O)O.O=S(=O)(c1ccc(CN2CCOCC2)cc1)N1CCCC1c1ccc(F)cc1` (racemic) [Example 86, (RS)-4-{4-[2-(4-Fluoro-phenyl)-pyrrolidine-1-sulfonyl]-benzyl}-morpholine fumarate (1:1)], the “Remarks (agonist / antagonist)” value is “Antagonist”.

Regarding `Cc1ccc(S(=O)(=O)N2CCCC2c2ccc(F)c(F)c2)cc1` (racemic) [Example 38, (RS)-2-(3,4-Difluoro-phenyl)-1-(toluene-4-sulfonyl)-pyrrolidine], the “agonistic / antagonistic activity” value was “agonistic activty” and the “Remarks (agonist / antagonist)” value is reported as “Agonist”. Take `COc1cccc(C2CCCN2S(=O)(=O)c2ccc(Cl)cc2)c1` (racemic) [Example 34, (RS)-1-(4-Chloro-benzenesulfonyl)-2-(3-methoxy-phenyl)-pyrrolidine]: the “Remarks (agonist / antagonist)” value is “Antagonist”. Still for that read-out and setting: next, `O=S(=O)(c1ccc(Cl)cc1)N1CCC[C@@H]1c1ccc(F)cc1` [Example 76, (R)-1-(4-Chloro-benzenesulfonyl)-2-(4-fluoro-phenyl)-pyrrolidine]: “Agonist”; `O=S(=O)(c1ccccc1)N1CCCC1c1ccc(Cl)cc1` (racemic) [Example 13, (RS)-1-Benzenesulfonyl-2-(4-chloro-phenyl)-pyrrolidine]: “Agonist”. As to `O=S(=O)(c1ccc(F)cc1)N1CCCC1c1ccco1` (racemic) [Example 70, (RS)-1-(4-Fluoro-benzenesulfonyl)-2-furan-2-yl-pyrrolidine], the “Remarks (agonist / antagonist)” value is listed as “Antagonist”.

Turning to `Cc1ccccc1S(=O)(=O)N1CCCC1c1ccc(F)cc1` (racemic) [Example 18, (RS)-2-(4-Fluoro-phenyl)-1-(toluene-2-sulfonyl)-pyrrolidine], the agonist/antagonist result is “antagonist”, the IC50 was found to be 1.37 µM and the “Remarks (agonist / antagonist)” value was “Antagonist”.

As for `Cc1ccc(S(=O)(=O)N2CCC[C@@H]2c2ccc(F)cc2)cc1` [Example 81, (R)-2-(4-Fluoro-phenyl)-1-(toluene-4-sulfonyl)-pyrrolidine], the “agonistic / antagonistic activity” value was “agonistic activty” and the “Remarks (agonist / antagonist)” value was “Agonist”. For `CCc1ccc(S(=O)(=O)N2CCCC2c2ccc(F)cc2)cc1` (racemic) [Example 21, (RS)-1-(4-Ethyl-benzenesulfonyl)-2-(4-fluoro-Rhenyl)-pyrrolidine], the “agonistic / antagonistic activity” value is recorded as “agonistic activty” and the “Remarks (agonist / antagonist)” value is “Agonist”. Take `Cc1ccc(S(=O)(=O)N2CCCC2c2ccc(Cl)c(C)c2)cc1` (racemic) [Example 58, (RS)-2-(4-Chloro-3-methyl-phenyl)-1-(toluene-4-sulfonyl)-pyrrolidine]: the “agonistic / antagonistic activity” value is on record as “agonistic activty” and the “Remarks (agonist / antagonist)” value was “Agonist”. For `O=S(=O)(c1ccc(Cl)cc1)N1CCCC1c1ccc(F)c(F)c1` (racemic) [Example 39, (RS)-1-(4-Chloro-benzenesulfonyl)-2-(3,4-difluoro-phenyl)-pyrrolidine], in that order: “agonistic activty” and “Agonist”. As for `Cc1ccc(S(=O)(=O)N2CCCC2c2cccc(F)c2)cc1` (racemic) [Example 1, (RS)-2-(3-Fluoro-phenyl)-1-(toluene-4-sulfonyl)-pyrrolidine], the “Remarks (agonist / antagonist)” value was “Agonist”. The same measure, in the same setting: next, `Cc1ccc(C2CCCN2S(=O)(=O)c2ccc(F)cc2)c(C)c1` (racemic) [Example 68, (RS)-2-(2,4-Dimethyl-phenyl)-1-(4-fluoro-benzenesulfonyl)-pyrrolidine]: “Antagonist”.

`O=S(=O)(c1ccc(Cl)cc1)N1CCCC1c1ccsc1` (racemic) [Example 56, (RS)-1-(4-Chloro-benzenesulfonyl)-2-thien-3-yl-pyrrolidine]: the “agonistic / antagonistic activity” value is on record as “agonistic activty” and the “Remarks (agonist / antagonist)” value was “Agonist”. For `O=S(=O)(c1ccc2ccccc2c1)N1CCCC1c1ccc(F)cc1` (racemic) [Example 66, (RS)-2-(4-Fluoro-phenyl)-1-(naphthalene-2-sulfonyl)-pyrrolidine], the “Remarks (agonist / antagonist)” value was “Antagonist”.

With `Cc1ccc(S(=O)(=O)N2CCC[C@H]2c2ccc(F)cc2)cc1` [Example 82, (S)-2-(4-Fluoro-phenyl)-1-(toluene-4-sulfonyl)-pyrrolidine], the “agonistic / antagonistic activity” value is given as “agonistic activty” and the “Remarks (agonist / antagonist)” value is recorded as “Agonist”. Take `Cc1cc(C)c(S(=O)(=O)N2CCCC2c2ccc(F)cc2)c(C)c1` (racemic) [Example 61, (RS)-2-(4-Fluoro-phenyl)-1-(2,4,6-trimethyl-benzenesulfonyl)-pyrrolidine]: the “Remarks (agonist / antagonist)” value is listed as “Antagonist”.

As to `CCCc1ccc(S(=O)(=O)N2CCCC2c2ccc(F)cc2)cc1` (racemic) [Example 59, (RS)-2-(4-Fluoro-phenyl)-1-(4-propyl-benzenesulfonyl)-pyrrolidine], the “Remarks (agonist / antagonist)” value is reported as “Antagonist”. The same measure, in the same setting: next, `Cc1ccc(S(=O)(=O)N2CCCC2c2cccc(C)c2)cc1` (racemic) [Example 28, (RS)-1-(Toluene-4-sulfonyl)-2-m-tolyl-pyrrolidine]: “Agonist”; `NCc1ccc(S(=O)(=O)N2CCCC2c2ccc(F)cc2)cc1` (racemic) [Example 87, (RS)-4-[2-(4-Fluoro-phenyl)-pyrrolidine-1-sulfonyl]-benzylamine fumarate (1:0.5)]: “Antagonist”. `COCc1ccc(S(=O)(=O)N2CCCC2c2ccc(F)cc2)cc1` (racemic) [Example 85, (RS)-2-(4-Fluoro-phenyl)-1-(4-methoxymethyl-benzenesulfonyl)-pyrrolidine]: the “agonistic / antagonistic activity” value is “agonistic activty” and the “Remarks (agonist / antagonist)” value is “Agonist”. In the case of `O=S(=O)(c1ccc(Cl)cc1)N1CCCC1c1cccs1` (racemic) [Example 36, (RS)-1-(4-Chloro-benzenesulfonyl)-2-thien-2-yl-pyrrolidine], the agonist/antagonist entry is given as “antagonist”, the IC50 came to 0.56 µM and the “Remarks (agonist / antagonist)” value is recorded as “Antagonist”. For the compound `O=S(=O)(c1ccccc1)N1CCCC1c1ccc(C(F)(F)F)cc1` (racemic) [Example 75, (RS)-1-Benzenesulfonyl-2-(4-trifluoromethyl-phenyl)-pyrrolidine], the “Remarks (agonist / antagonist)” value is recorded as “Antagonist”. In the case of `O=S(=O)(c1ccc(F)cc1)N1CCCC1c1ccc(F)cc1` (racemic) [Example 16, (RS)-1-(4-Fluoro-benzenesulfonyl)-2-(4-fluoro-phenyl)-pyrrolidine], the “agonistic / antagonistic activity” value is reported as “agonistic activty” and the “Remarks (agonist / antagonist)” value is on record as “Agonist”. In the case of `Cc1ccc(C2CCCN2S(=O)(=O)c2ccc(F)cc2)cc1` (racemic) [Example 23, (RS)-1-(4-Fluoro-benzenesulfonyl)-2-p-tolyl-pyrrolidine], the “Remarks (agonist / antagonist)” value is “Antagonist”. Turning to `Cc1ccc(S(=O)(=O)N2CCC(C)C2c2ccc(F)cc2)cc1` (racemic) [Example 88, Mixture of (2RS,3RS )- and (2RS,3SR)-2-(4-fluoro-phenyl)-3-methyl-1-(toluene-1-sufonyl)-pyrrolidine], the “agonistic / antagonistic activity” value was “agonistic activty”, the agonist/antagonist entry is on record as “agonist”, the EC50 amounted to 0.62 µM and the “Remarks (agonist / antagonist)” value is listed as “agonist”.
